Data reported in patent US11806344B2, “Pharmaceutical composition comprising mineralocorticoid receptor antagonist and use thereof” (priority 2016, dated 2023).
“Also recorded” adds a separate entry of the source. Read-outs that look alike come from different tables or passages of the source.

Key:
[1] = test system: patients having chronic kidney disease; assay: Safety, tolerability and pharmacokinetics in patients having chronic kidney disease (Example 9); assay type: in vivo, human; conditions: CKD patients; for UACR decreased: at the 8th week; for Predicated AUCtau: predicted from the 0.5 mg/day group
Description: (§1) The patients in this example were those having chronic kidney disease with symptoms of renal failure, proteinuria, acute kidney injury, glomerular nephritis, renal cyst, urinary frequency, renal calculus, obstructive uropathy, and etc. These patients also had other diseases or implications such as diabetes mellitus, hyperlipidemia, hypercholesterolemia, hypertension, peripheral vascular diseases, coronary artery disease, and etc.
(§2) These patients continued to take the medications that they had prior to the present clinical trial, the medications being, for example, angiotensin converting enzyme inhibitors, such as Lisinopril, Benazepril, Enalapril, and Enalapril Maleate; angiotensin II receptor blockers, such as Valsartan and Losartan; calcium channel blockers, such as Amlodipine, and Nifedipine; diuretics, such as Furosemide; beta-receptor blockers, such as Metoprolol succinate, Metoprolol tartrate, Carvedilol, and Atenolol; and antilipemic drugs, such as Simvastatin, Atorvastatin, Fenofibrate, Pravastatin, and Rosuvastatin.
(§3) In this example, the administration dose referred to the amount of Compound I, although the pharmaceutical composition was administered. Two groups of subjects were administered once a day for 56 consecutive days at the daily doses of 0.5 mg (1 capsule for each administration, 0.5 mg of Compound I per capsule) and 2.5 mg (1 capsule for each administration, 2.5 mg of Compound I per capsule), respectively, with 6 subjects for the 0.5 mg/day dose group and also 6 for the 2.5 mg/day dose group. The capsules used here were the capsules prepared in Example 2, i.e., the capsules of Capsule formulation 3 (the capsule with 0.5 mg of Compound I), and Capsule formulation 4 (the capsule containing 2.5 mg of Compound I).
(§4) Plasma samples were collected to measure plasma drug concentration, and the pharmacokinetic parameters were analyzed using the non-compartment model. Serum samples were collected to measure serum potassium levels.

[2] = as above; assay type: in vivo, human; conditions: human, plasma, oral, CKD patients
Description: as §1, §2, §3, §4

[3] = Safety, tolerability and pharmacokinetics in healthy subjects, multiple doses (Example 8); assay type: in vivo, human; conditions: human, plasma, oral, healthy subjects, 14 days, read-out: average steady-state AUC0-24 (AUCtau)
Experimental: (§5) Two groups of healthy subjects were given capsules once a day at daily doses of 2.5 mg (1 capsule for each administration, 2.5 mg of Compound I per capsule), and 5.0 mg (2 capsules for each administration, 2.5 mg of Compound I per capsule), respectively, each group containing 6 subjects. The administration continued for 14 consecutive days. The capsules used in this study were of Capsule formulation 4 prepared in Example 2.
as §4

healthy subjects = assay: as above; assay type: in vivo, human; conditions: for average steady-state AUC0-24 (AUCtau): 14 days
Experimental: as §5, §4

[4] = Water solubility and permeation of Compound I (statement); assay type: physicochemical
[5] = Effect of surfactants on absorption in SD rats (Example 4-1); conditions: rat, plasma, oral, 1 mg/kg
Experimental: Blood collection: The animals were fixed and had their tails warmed in a water bath 10 min prior to blood collection; about 100 μL of blood was collected through the tail vein for each animal and put into an anticoagulation tube containing hepatin; the blood samples were subject to centrifugation at 8000 rpm for 6 min at 4° C. to obtain plasma samples, which had to be obtained within 30 minutes after blood was collected; the plasma samples were stored in a freezer at −80° C. for future tests.
Sample analysis: 50 μL of each plasma sample from the freezer was transferred to a centrifugal tube; 100 μL of water and 400 μL of MTBE standard solution (50 ng/mL) were added into the tube and well mixed with the plasma; the obtained mixture was mixed for 10 minutes using a vortex mixer and then subject to centrifugation for 5 minutes (12000 r/min); 300 μL of the supernatant was transferred to another centrifugal tube and blown dry with nitrogen gas; the resultant substance was dissolved in 200 μL of a solution consisting of methanol and water at a ratio of 1:1, of which 20 μL was used for the LC-MS/MS measurement.
Data processing: the compound concentration was output by Analyst 1.6.1 (AB Sciex); the means, standard deviations, and variation coefficients were calculated using Microsoft Excel (no calculation needed if these parameters were directed output by Analyst 1.6.1), and pharmacokinetic parameters were determined using the NCA analysis object in Pharsight Phoenix 6.3.

[6] = Absorption of capsules of Capsule formulation 5 in Beagle dogs (Example 3-4); assay type: in vivo; conditions: dog, plasma; mean of four Beagle dogs, oral, 2.67 mg/kg; read-out: BA % (Mean, average bioavailability)
Experimental: Capsule of Capsule formulation 5 as prepared in Example 2, 10 mg of Compound I per capsule.
Solutions: 5% DMSO+95% (6% HP-β-CD solution)
Animals: Four Beagle Dogs.
(1) Administration of capsules. All animals fasted for 12 h or longer before drug administration, and food was supplied 4 h after drug administration, with always ad libitum access to water. Beagle dogs were orally given the capsule of Capsule formulation 5 as prepared in Example 2 (two capsules for each Beagle, 10 mg of Compound I per capsule) in a single dose, and 200 μL of blood was collected for each animal, via the small saphenous vein, immediately prior to the administration (0 h) and 0.17 h, 0.50 h, 0.75 h, 1.0 h, 2.0 h, 4.0 h, 6.0 h, 8.0 h, 12 h and 24 h after the administration. The collected blood was stored in a dry tube with heparin (normal saline containing 0.1% heparin sodium). (2) Plasma preparation. The whole blood samples collected in step (1) were subject to centrifugation at a low speed (8000 r/min, 6 min, 4° C.) to separate the plasma (the whole blood was stored in a mobile freezer at about 0 to 4° C., and plasma had to be separated within 30 minutes after the blood collection), and the plasma was kept in dark in a freezer at −70° C. (or lower) for future analysis.

[7] = healthy subjects, multiple doses 2.5 mg/day

SMILES: N#Cc1ccc(N2N=C3c4ccc(C(=O)N5CCC(O)CC5)nc4CC[C@@H]3[C@@H]2C2CCCC2)cc1Cl [Compound I, 2-chloro-4-[(3S,3aR)-3-cyclopentyl-7-(4-hydroxylpiperidine-1-carbonyl)-3,3a,4,5-tetrahydro-2H-pyrazolo[3,4-f]quinolin-2-yl]benzonitrile]
- UACR decreased ([1]; 0.5 mg/day): 58.9%
- UACR decreased ([1]; 2.5 mg/day): 50.7%
- UACR decreased compared to the baseline ([1]; administered for one day at 0.5 mg/day): ≥ 30.5%
- AUC individual variation: highest AUC vs lowest AUC subject ([1]; capsule, multiple doses 2.5 mg daily): 2.27 times
- AUC individual variation: highest AUC vs lowest AUC subject ([1]; capsules, multiple doses 0.5 mg daily): 2.14 times
- Predicated AUCtau ([1]; dose 0.1 mg): 130.5 ng·h/mL
- Predicated AUCtau ([1]; dose 0.15 mg): 195.8 ng·h/mL
- Predicated AUCtau ([1]; dose 0.2 mg): 261 ng·h/mL
- Predicated AUCtau ([1]; dose 0.25 mg): 326.3 ng·h/mL
- Predicated AUCtau ([1]; dose 0.3 mg): 391.5 ng·h/mL
- Predicated AUCtau ([1]; dose 1.0 mg): 1305 ng·h/mL
- Predicated AUCtau ([1]; dose 2.0 mg): 2610 ng·h/mL
- Predicated AUCtau ([1]; dose 2.5 mg): 3262.5 ng·h/mL
- serum potassium level (observation) ([1]; multiple doses 0.5 mg/day): no elevated serum potassium level was observed
- blood pressures and UACR (observation) ([1]; multiple doses 0.5 mg/day or 2.5 mg/day): significantly decrease in blood pressures and urine albumin-to-creatinine ratio (UACR)
- serum potassium level (observation) ([1]; multiple doses 2.5 mg/day): serum potassium levels were elevated; also recorded: mild increase of the serum potassium level was observed in one subject; also recorded: In one subject, the serum potassium level slightly increased
- AUC ([2]; 0.5 mg, mean AUC plus the standard deviation at 0.5 mg, read-out: upper limit of AUC that is safe): 885 ng·h/mL
- AUC ([2]; 0.5 mg, mean AUC plus twice the standard deviation at 0.5 mg, read-out: upper limit of AUC that is safe): 1120 ng·h/mL
- AUC ([2]; 0.5 mg/day, administered for one day at 0.5 mg/day, read-out: steady-state AUCtau): ≥ 106 ng·h/mL
- AUC ([2]; 0.5 mg/day, multiple doses 0.5 mg/day, read-out: average steady-state AUCtau): 652 ± 232 ng·h/mL
- AUC ([2]; 2.5 mg, mean AUC plus the standard deviation at 2.5 mg, read-out: upper limit of AUC that is safe): 2890 ng·h/mL
- AUC ([2]; 2.5 mg, mean AUC plus twice the standard deviation at 2.5 mg, read-out: upper limit of AUC that is safe): 3170 ng·h/mL
- AUC ([2]; 2.5 mg/day, multiple doses 2.5 mg/day, read-out: average safe steady-state AUCtau): 2610 ± 280 ng·h/mL
- AUC(0-t) ([3]; 2.5 mg/day, multiple doses 2.5 mg/day): 2860 ± 821 ng·h/mL
- AUC(0-t) ([3]; 5 mg/day, multiple doses 5.0 mg/day): 6380 ± 1030 ng·h/mL
- serum potassium level (observation) (healthy subjects; healthy subjects (6), multiple doses 5.0 mg/day): transient elevated serum potassium level observed in three subjects; also recorded: elevated serum potassium levels were observed in 3 subjects but were transient
- serum potassium level (observation) (healthy subjects; [7]): no elevated serum potassium level observed; also recorded: elevated serum potassium levels were not observed
- average steady-state AUC0-24 (AUCtau) (healthy subjects; [7]): 2863 ± 822 ng·h/mL
- average steady-state AUC0-24 (AUCtau) (healthy subjects; healthy subjects, multiple doses 5.0 mg/day): 6373 ± 1026 ng·h/mL
- AUC individual variation: highest AUC vs lowest AUC subject (healthy subjects; healthy volunteers, capsule, multiple doses 2.5 mg daily): 2.37 times
- permeation rate [4]: medium
- solubility in water [4]: insoluble in water
- bioavailability [5]: 64.7%
- bioavailability [6]: 56.5%
